# Measurements as given in ChEMBL document CHEMBL3507680, “University of Dundee, Gates Library screen for HepG2 cell viability”.
# Assay: Human HepG2 cell viability assay in 384 well format
# Assay type: toxicity, cell-based
# Parameters: dose 125 nL, time 70.5 hour; cytotoxicity at 70.5 h: concentration not given beside the values
# Conditions: HepG2 cells, read-out: Inhibition
row,SMILES,cytotoxicity at 70.5 h [%]
1,CCOCc1ccccc1NC(=O)NCC(C)(O)c1cc(C)oc1C (centres undefined),-1.67
2,COc1ccc2cc(CN(C)C(C)c3nc(C4CC4)no3)ccc2c1 (centres undefined),-0.253
3,CC(c1nc(C2CC2)no1)N(C)Cc1ccc(Cl)cc1 (centres undefined),-3.08
4,CC(c1nc(C2CC2)no1)N(C)Cc1ccc2c(c1)OCCO2 (centres undefined),-0.549
5,CC(C)Cn1cnnc1C1CCCN1C(=O)c1ccc(F)cc1F (centres undefined),-2.82
6,COc1cc(F)ccc1N(C)Cc1ccccn1,-1.59
7,CCNC(=O)CN(CC)C(=O)Cc1csc(C(C)C)n1,-1.29
8,COc1cccc2c1N(Cc1noc(C3CC3)n1)CCC2,39.7
9,O=C(NCc1ccncc1)N1CCSCC1CCO (centres undefined),10.5
10,CC(C)C(NC(=O)c1ccco1)C(=O)N1CCC2(CC1)OCCO2 (centres undefined),17.8
11,COc1ccccc1CCNC(=O)NC(C)COCC(F)(F)F (centres undefined),-5.34
12,N#Cc1cccc(NC(=O)N2CCCC(N3CCCC3=O)C2)c1 (centres undefined),0.781
13,N#Cc1nccnc1NC1CCN(c2ccccc2Br)C1 (centres undefined),11.1
14,Cn1cccc(NC(=O)COc2ccc(Cl)cc2)c1=O,-1.21
15,COCC(C)NC(=O)NCCc1cccc(OC)c1O (centres undefined),8.57
16,N#Cc1nccnc1NCCC1CCN(CC(F)(F)F)CC1,21.7
17,FC(F)(F)CN1CCC(CCNc2ncccn2)CC1,0.447
18,FC(F)c1nnc2ccc(N3CCC4(CCCCC4)C3)nn12,-3.87
19,CC(C)OCCS(=O)(=O)c1ccccc1C#N,11.2
20,N#Cc1nccnc1NC1CCN(c2c(F)cccc2F)C1 (centres undefined),-4.72
21,COc1ccc2c(c1)C(=O)N(C)C1(CCN(C(=O)OC(C)(C)C)CC1)N2,1.71
22,NS(=O)(=O)CCN1CCOC(c2ccc(Cl)cc2)C1 (centres undefined),2.97
23,Cc1ccccc1S(=O)(=O)CCOC(C)C,9.57
24,CCCS(=O)(=O)CCN1CCOC(c2ccsc2)C1 (centres undefined),-2.47

row,SMILES,cytotoxicity at 70.5 h [%]
1,CCc1nnc2n1CCN(C(=O)c1ccccc1OCC1CC1)C2,0.159
2,Cc1c(C(=O)N(C)CC(C)O)sc2nc(C(F)(F)F)ccc12 (centres undefined),-9.55
3,CCS(=O)(=O)NCCNC(=O)N(Cc1ccc(C)o1)C(C)C,-13.2
4,COc1cccc2c1N(Cc1nc3c(cnn3C)c(=O)[nH]1)CCC2,22.2
5,Cn1ncc2c(=O)[nH]c(CN3CCCc4cc(F)cc(F)c43)nc21,-15.9
6,CC(=O)N1Cc2ccccc2C[C@H]1C(=O)Nc1ccccn1,-12
7,CCN(CC)Cc1ccc(C(=O)NC2CCc3cc(Br)ccc32)o1 (centres undefined),-24.6
8,CCN(CC(=O)NCc1nc(C2CC2)no1)Cc1ccc(Cl)cc1,-15.6
9,Cc1cc(C2CCCN(CC(=O)N3CCc4ccccc43)C2)n[nH]1 (centres undefined),-6.5
10,Cn1ccnc1CNCCNc1ncc(Cl)cc1Cl,-5.95
11,COc1ccc(C(NCc2cccc(O)c2)C2CC2)cc1 (centres undefined),16.8
12,CC(C)OCCN1CCN(c2ccc(CN(C)C)cn2)CC1,8.47
13,CN(C)C(=O)N1CCN(C(=O)c2ccc(Cl)c(Cl)c2)C(C)(C)C1,0.62
14,COc1ccc(CN(C)CC(=O)Nc2ccc3[nH]c(=O)[nH]c3c2)cc1F,-8.14
15,CN(CC(=O)c1ccc2[nH]c(=O)[nH]c2c1)Cc1ccc2c(c1)OCO2,-3.13
16,COc1ccc(CN(C)CC(=O)c2ccc3[nH]c(=O)[nH]c3c2)cc1F,-6.51
17,O=C(c1ccc(F)cc1F)N1CCN(C(=O)C2CCCCC2)CC1,-5.82
18,Cc1cn2nc(Sc3nnc(C(C)C)n3C)sc2n1,-10.9
19,CCc1nnc(Sc2nn3cc(C)nc3s2)n1C,-2.38
20,CCOc1ccc(Cl)cc1NC(=O)N1CCC(n2cncn2)CC1,-7.8
21,CCOc1ccc(NC(=O)N2CCC(n3cncn3)CC2)cc1Cl,19.7
22,O=C(c1occc1CN1C(=O)Cc2ccccc21)N1CCCCCC1,-3.4
23,O=C(c1cc(F)ccc1O)N1CCN(C2CCSC2)CC1 (centres undefined),-8.37
24,O=C(c1occc1CN1C(=O)Cc2ccccc21)N1CC(O)C1,-1.51

row,SMILES,cytotoxicity at 70.5 h [%]
1,Cc1cc(C)cc(C(=O)N2CCN(C(=O)N(C)C)CC2(C)C)c1,-0.125
2,Cc1noc(CN2CCC(Cc3ccc(F)cc3)CC2)n1,-9.61
3,CCN(C)C(=O)CCN(C)Cc1cnc(C)s1,-0.298
4,COc1ccc(C2CCCN2Cc2cnn(C)c2)cc1 (centres undefined),-9.31
5,CC(SCC(=O)N(C)CC(=O)NC1CC1)c1ccccc1F (centres undefined),-5.51
6,COCCN1CCCN(C(=O)c2oc(C)nc2C)CC1,-7.73
7,CC(=O)NC(C(=O)N(C)Cc1nnc2n1CCC2)C(C)C (centres undefined),22.2
8,Cc1cnn(CC(C)NCC(=O)NCCc2cccs2)c1 (centres undefined),10.8
9,Brc1cccc(C2(CNCc3cc[nH]c3)CCOCC2)c1,17.6
10,Cc1cc(C(C)NC(=O)c2ccc(O)nc2)c(C)o1 (centres undefined),2.4
11,Cc1oc(-c2cccs2)nc1C(=O)N(C)C1(C#N)CCC1,-17.6
12,CC(C(=O)N(C)Cc1nnc2n1CCC2)S(C)(=O)=O (centres undefined),-1.23
13,CC(O)CN1CCC(CNCc2ccc(C#N)cc2)CC1 (centres undefined),0.277
14,CC(O)CN1CCC(CN(C)Cc2ccc(C(N)=O)cc2)CC1 (centres undefined),-9.95
15,CCC(C)CS(=O)(=O)NC(=O)C1CC1 (centres undefined),-5.06
16,OCCn1nnnc1Cc1ccc(Br)cc1,-6.7
17,CCc1cnc(N2CCN(Cc3ccno3)CC2)s1,-1.37
18,Cc1ccc(CN(C)C)cc1NC(=O)C1CC=CC1,-3.31
19,Cc1cc(C(C)NC(=O)c2c[nH]c(=O)c(Cl)c2)c(C)o1 (centres undefined),-1.21
20,CC(O)CN1CCC(CN(C)Cc2cccc(C#N)c2)CC1 (centres undefined),-2.33
21,CC(O)CN1CCC(CN(C)Cc2ccc(C#N)cc2F)CC1 (centres undefined),6.92
22,CC(C)OCCCNC(=O)N(C)C(C)c1ccc(-n2cncn2)cc1 (centres undefined),-6.64
23,CC(CNC(=O)NCc1ccsc1)CC1(C)OCCO1 (centres undefined),-8.79
24,Cc1cccnc1CSCCCNS(C)(=O)=O,-5.33

row,SMILES,cytotoxicity at 70.5 h [%]
1,CC(O)CN1CCC(CN(C)Cc2ccc(C#N)cc2)CC1 (centres undefined),-11
2,Clc1nc2ccccn2c1CNCC1CN(C2CC2)CCO1 (centres undefined),4.07
3,N#Cc1ccc(CNc2cnn(CCN3CCOCC3)c2)cc1,42.1
4,Cc1cc(C(=O)O)c2c(Br)cccc2n1,-13.5
5,Cc1noc(C)c1CN(C)C(=O)CCn1c(=O)n(C)c2ccccc21,-12.2
6,CN(C(=O)c1ccc(S(=O)(=O)NC(C)(C)C)cc1)C1(C#N)CCC1,-17.4
7,Cc1cc2ccccc2n1CC(=O)Nc1ccnn1CC1CCOC1 (centres undefined),-14.7
8,CCC(C)NS(=O)(=O)c1ccc(C(=O)N(C)C2(C#N)CCC2)cc1 (centres undefined),-23.6
9,O=C(COc1ccc2c(c1)CCC2)N1CCCC1c1ccc[nH]1 (centres undefined),-23.1
10,Cc1noc(C)c1CN(C)Cn1c(=O)n(C)c2ccccc21,-6.45
11,NC(=O)C1CCN(C(=O)Cn2nc(-c3ccccc3)oc2=O)C1 (centres undefined),-5.69
12,CCc1nc(CN2CCN(c3ncnc4cc(F)ccc34)CC2)no1,24.8
13,CC(C)C1CN(C(=O)c2ccc(C(N)=O)cc2)CCS1 (centres undefined),-6
14,O=C(NC1(c2cccc(F)c2)CCOCC1)c1cc[nH]n1,-4.33
15,CC(C)C1CN(C(=O)c2nccnc2N)CCS1 (centres undefined),-4.8
16,CC(C)(C)OC(=O)N1CCCc2ccc(NCc3ncc[nH]3)cc21,9.84
17,O=C(NC1CCCC1)NC1CCC(C(=O)N2CCSCC2)CC1 (centres undefined),-9.08
18,Cc1cccc(S(=O)(=O)NCC(C)N2CCN(C)CC2)c1Cl (centres undefined),-1.95
19,O=C(C(CNCc1ccsc1)c1ccccc1)N1CCOCC1 (centres undefined),-2.8
20,COCCc1noc(CNC2CCCN(c3cccnn3)C2)n1 (centres undefined),11
21,Cc1n[nH]cc1CNc1ccc2c(c1)CN(C(=O)OC(C)(C)C)CC2,-6.16
22,CN(Cc1ccc(N2CCCCC2)cc1)Cc1noc(C(C)(C)C)n1,-9.02
23,CC(O)CN1CCN(Cc2csc(-c3ncccn3)n2)CC1 (centres undefined),5.33
24,Cc1n[nH]c(C2CN(C(=O)CCc3ccco3)CCO2)n1 (centres undefined),9.82

row,SMILES,cytotoxicity at 70.5 h [%]
1,COc1cc(C(=O)N(Cc2ccc(F)cc2)C2CC2)cc2c1OCCO2,17.8
2,Cc1ccsc1CN(C)C(=O)Cn1nc(-c2ccc(F)cc2)oc1=O,4.04
3,CN(Cc1ccc(F)cc1)C(=O)Cn1nc(-c2ccc(F)cc2)oc1=O,26.3
4,CN(Cc1ccccc1Br)C(=O)Cn1nc(-c2ccc(F)cc2)oc1=O,-8.06
5,O=C(COc1cccc2c1CCC2=O)NCCSc1ccccc1,3.81
6,COc1ccc(CS(=O)(=O)CC(=O)NCC2CC2)cc1F,-3.56
7,O=C(Cc1c[nH]c2ccccc12)N1CCN(C(=O)c2ccoc2)CC1,1.6
8,CC(CN1CCOCC1)NC(=O)NCc1ccc(Cl)s1 (centres undefined),-7.44
9,CCOCCCC(=O)NCc1cn2cc(Br)ccc2n1,-3.96
10,COc1ccc(-c2nnc(SCC(=O)NCC(C)C)[nH]2)c(OC)c1,-7.35
11,CCc1cc(NCc2ccccc2CN2CCCC2)n2ncnc2n1,29.1
12,CCc1cc(NCC(O)CN2CCCCC2)n2ncnc2n1 (centres undefined),1.39
13,COC(=O)[C@H](C)NC(=O)c1cc(-c2cccc(Cl)c2)no1,2
14,CS(=O)(=O)N1CCc2c(cccc2NC(=O)CC(F)(F)F)C1,-1.76
15,Cc1c(C(=O)NCC(C)C)nnn1-c1cccc2c1CCN(C)C2,1.85
16,CC(NC(=O)c1cc(-c2cccc(Cl)c2)no1)C(=O)N1CCCC1 (centres undefined),-10.6
17,Cc1ccc(OCCC(=O)NC2CCc3nccn3C2)cc1 (centres undefined),0.164
18,Cc1ccc(OCCC(=O)NC2CCc3nc(C)cn3C2)cc1 (centres undefined),2.29
19,Cc1cc(NC(=O)C(c2cccc(F)c2)N2CCOCC2)ccn1 (centres undefined),13.3
20,Cc1n[nH]c(C2CN(C(=O)c3cc(Cl)c[nH]3)CCO2)n1 (centres undefined),-3.9
21,CC(=O)Nc1cccc(OCCNC(=O)N(C)Cc2ccco2)c1,0.512
22,Brc1ccc(CNCc2nnc3n2CCCCC3)s1,-16.6
23,Fc1cccc(-c2c[nH]c(C3CCCN3)n2)c1 (centres undefined),0.492
